Assay results reported in article PMC3602459 (2013).

Assays:
[1] = system: tRNA^phe (yeast) (RNA, tRNA) GCGGAUUUAGCUCAGUUGGGAGAGCGCCAGACUGAAGAUCUGGAGGUCCUGUGUUCGAUCCACAGAAUUCGCACCA; test: absorbance titration, Scatchard, McGhee-von Hippel cooperative fit; settings: 10 mM Na+; citrate-phosphate, pH 7.1, 20 °C; overall cooperative constant; tRNA in nucleotide phosphates; per base
[2] = system: tRNA^phe (yeast) (RNA, tRNA) GCGGAUUUAGCUCAGUUGGGAGAGCGCCAGACUGAAGAUCUGGAGGUCCUGUGUUCGAUCCACAGAAUUCGCACCA; test: absorbance titration, Benesi-Hildebrand; settings: 10 mM Na+; citrate-phosphate, pH 7.1, 20 °C; apparent; tRNA in nucleotide phosphates; per base
[3] = system: tRNA^phe (yeast) (RNA, tRNA) GCGGAUUUAGCUCAGUUGGGAGAGCGCCAGACUGAAGAUCUGGAGGUCCUGUGUUCGAUCCACAGAAUUCGCACCA; test: fluorescence titration, Benesi-Hildebrand; settings: 10 mM Na+; citrate-phosphate, pH 7.1, 20 °C; apparent; tRNA in nucleotide phosphates; per base
[4] = system: tRNA^phe (yeast) (RNA, tRNA) GCGGAUUUAGCUCAGUUGGGAGAGCGCCAGACUGAAGAUCUGGAGGUCCUGUGUUCGAUCCACAGAAUUCGCACCA; test: fluorescence titration, Scatchard, McGhee-von Hippel cooperative fit; settings: 10 mM Na+; citrate-phosphate, pH 7.1, 20 °C; overall cooperative constant; tRNA in nucleotide phosphates; per base
[5] = system: tRNA^phe (yeast) (RNA, tRNA) GCGGAUUUAGCUCAGUUGGGAGAGCGCCAGACUGAAGAUCUGGAGGUCCUGUGUUCGAUCCACAGAAUUCGCACCA; test: ITC, single-site fit; settings: 10 mM Na+; citrate-phosphate, pH 7.0, 20 °C; tRNA concentration in nucleotide phosphates; per base
[6] = system: tRNA^phe (yeast) (RNA, tRNA) GCGGAUUUAGCUCAGUUGGGAGAGCGCCAGACUGAAGAUCUGGAGGUCCUGUGUUCGAUCCACAGAAUUCGCACCA; test: UV melting, 260 nm; settings: 10 mM Na+; citrate-phosphate, pH 7.0; 50 µM tRNA nucleotides; saturating alkaloid; average Tm 50 °C alone; per base
[7] = system: tRNA^phe (yeast) (RNA, tRNA) GCGGAUUUAGCUCAGUUGGGAGAGCGCCAGACUGAAGAUCUGGAGGUCCUGUGUUCGAUCCACAGAAUUCGCACCA; test: ITC; settings: 10 mM Na+; citrate-phosphate, pH 7.0, 20 °C; only background heats, binding negligible

Compound `COc1ccc2cc3[n+](cc2c1OC)CCc1cc2c(cc1-3)OCO2` has a Kiω [1] of 169000 M⁻¹, a KBH [2] of 114000 M⁻¹ and a KBH [3] of 122000 M⁻¹. For the same compound, the Kiω [4] was 177000 M⁻¹, the Ka [5] was 0.86 ± 0.01 × 10^5 M^-1 and the ΔTm [6] was 4.5 °C.
With `COc1ccc2cc3[n+](cc2c1OCC(=O)NCCc1ccccc1)CCc1cc2c(cc1-3)OCO2` the Kiω [1] was 922000 M⁻¹, the KBH [2] was 874000 M⁻¹ and the KBH [3] was 889000 M⁻¹. For the same compound, the Kiω [4] was 941000 M⁻¹, the Ka [5] was 8.20 ± 0.04 × 10^5 M^-1 and the ΔTm [6] was 8.0 °C.
`COc1ccc2cc3[n+](cc2c1OCC(=O)Nc1ccccc1)CCc1cc2c(cc1-3)OCO2` was tested, and the Kiω [1] was 434000 M⁻¹, the KBH [2] was 425000 M⁻¹ and the KBH [3] was 404000 M⁻¹. For the same compound, the Kiω [4] was 427000 M⁻¹, the Ka [5] was 4.67 ± 0.03 × 10^5 M^-1 and the ΔTm [6] was 6.5 °C.
For `COc1ccc2cc3[n+](cc2c1O)CCc1cc2c(cc1-3)OCO2`, the KBH [2] was 4300 M⁻¹, the KBH [3] was 4200 M⁻¹ and the binding [7] was “weak”. For the same compound, the ΔTm [6] was 2.0 °C.
With `COc1ccc2cc3[n+](cc2c1OCC(=O)NCc1ccccc1)CCc1cc2c(cc1-3)OCO2` the Kiω [1] was 640000 M⁻¹, the KBH [2] was 613000 M⁻¹ and the KBH [3] was 644000 M⁻¹. The Kiω [4] was 658000 M⁻¹, the Ka [5] was 7.17 ± 0.03 × 10^5 M^-1 and the ΔTm [6] was 7.0 °C.
